Reference: US20260116845A1, “LIPIDS AND COMPOSITIONS THEREOF” (Kernal Biologics, Inc., priority 2023, published 2026)

Legend:
AML12 Cell Line = assay: Transfection of AML12 Cell Line with FLuc mRNA LNPs (ONE-Glo EX luciferase signal); assay type: cell-based; conditions: 200 ng Fluc mRNA-LNP, 24 hours
Summary of the method: (§1)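 Firefly luciferase luminescence measured 24 h after transfection with 200 ng mRNA-LNP per well in Opti-MEM. Seeding: 5,000 cells/well for B16F10 and MC38.K, 20,000 for AML12. LNPs were pre-incubated 30 min with mouse serum; mRNA content determined by RiboGreen.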

B16F10 Cell Line = assay: Transfection of B16F10 Cell Line with FLuc mRNA LNPs (ONE-Glo EX luciferase signal); assay type: cell-based; conditions: 200 ng Fluc mRNA-LNP, 24 hours
Summary of the method: as §1

MC38.K Cell Line = assay: Transfection of MC38.K Cell Line with FLuc mRNA LNPs (ONE-Glo EX luciferase signal); assay type: cell-based; conditions: 200 ng Fluc mRNA-LNP, 24 hours; for Total Luciferin Signal (RLU) In Vitro - MC38.K: Table 4; for Total Luciferin Signal (RLU) In Vitro-MC38: Table 5
Summary of the method: as §1

Liver = assay: Ex-vivo luminescence signal from liver after IV Fluc mRNA LNPs in CD1 mice (IVIS); conditions: tail vein 1.0 mg/kg Day 0 and Day 2, imaging 18 hours after second dose; for Total Liver Tissue Luciferin Signal (Photons/s) Ex-vivo - CD1: Table 4; for Total Liver Tissue Luciferin Signal (Photons/s) In Vivo-Cd1: Table 5
hepatocytes = assay: Comparative study of fluoro v. non-fluoro compounds: Firefly Luciferase transfection efficiency; assay type: cell-based; conditions: Firefly Luciferase expression in hepatocytes; pairs Compound 54 v. 58 and Compound 68 v. 67
Source text: Transfection efficiency was compared between three pairs of compounds, Compound 54 v. Compound 58, Compound 68 v. Compound 67, and Compound 37 v. Compound 61. For each pair, the compounds only differ on one fluoro-substitution at the end of an alkyl chain. For example, the structures of Compound 54 and Compound 58 are shown below:
In vitro and in vivo comparison of Firefly Luciferase expression data of fluoro v. non-fluoro compounds were obtained according to procedure similar to those in Example 3 and Example 7. […] Compound 58 and Compound 68 v. Compound 67 in hepatocytes.

Spleen = assay: Ex-vivo luminescence signal from spleen after IV Fluc mRNA LNPs in CD1 mice (IVIS); conditions: tail vein 1.0 mg/kg Day 0 and Day 2, imaging 18 hours after second dose, Table 5
C57BL/6 mice = assay: Multi-dose tolerability screening of NT-beta-Actin mRNA LNPs in MC38.K-inoculated C57BL/6 mice; assay type: in vivo; conditions: C57BL/6 mice with MC38.K, 1.0 mg/kg IV twice a week for two weeks; for adverse clinical observations / reduction in white blood cells and lymphocytes in the blood: compared to Compound 23 LNPs
Method: NT-beta-Actin mRNA LNPs with different ionizable lipids were administered IV to C57BL/6 mice, inoculated with MC38.K cells, via the tail vein for a total of four doses (twice a week for two consecutive weeks) at a concentration of 1.0 mg/kg. Bodyweights were monitored and blood was collected pre-dose, 24 hours post first dose, 24 hours post fourth dose, and analyzed for cytokines, blood chemistry, and liver/spleen weights. Compounds 23, 99 and 101 were formulated using a peripheral process method. C57BL/6 mice were inoculated with MC38.K cells. Once tumors had grown, 1.0 mg/kg (Beta-Actin mRNA) of each LNP was intravenously administered twice a week for two weeks. […] N=6 per group for bodyweights, N=3 for blood analysis. Mean+/−SD.

liver, tumor, and spleen = assay: Biodistribution of Fluc mRNA LNPs in MC38.K-inoculated Albino B6 mice (ex vivo luminescence); conditions: Albino B6 mice with MC38.K, 1.0 mg/kg IV, 18 hours
Method: Fluc mRNA LNPs were administered to Albino B6 mice, inoculated with MC38.K cells, via the tail vein at 1.0 mg/kg. Eighteen hours later, bioluminescence was measured using an IVIS Spectrum imager. Mice were treated with 150 mg/kg luciferin substrate administered via intraperitoneal injection. Afterwards, mice were euthanized, and the lung, liver, spleen, and tumor were harvested for ex vivo imaging. All procedures were conducted according to the approved IACUC guidelines. N=5 per group. Data analysis was performed in Graphpad Prism 10. Values are reported as mean+/−standard deviation, unless specified otherwise. Ex-Vivo luminescence of liver, tumor, and spleen organs after 1.0 mg/kg IV injection of Peripheral LNPs. N=4 mice per group. (Mean±SD, n=4/group).

Row | Compound | Total Luciferin Signal (RLU) In Vitro - AML12 (AML12 Cell Line; Table 4) | Total Luciferin Signal (RLU) In Vitro - B16F10 (B16F10 Cell Line; Table 4) | Total Luciferin Signal (RLU) In Vitro - MC38.K (MC38.K Cell Line) | Total Liver Tissue Luciferin Signal (Photons/s) Ex-vivo - CD1 (Liver) | difference in transfection efficiency within fluoro v. non-fluoro pair (hepatocytes) | Total Luciferin Signal (RLU) In Vitro - AML12 (AML12 Cell Line; Table 5) | Total Luciferin Signal (RLU) In Vitro - B16F10 (B16F10 Cell Line; Table 5) | Total Luciferin Signal (RLU) In Vitro-MC38 (MC38.K Cell Line) | Total Liver Tissue Luciferin Signal (Photons/s) In Vivo-Cd1 (Liver) | Total Spleen Tissue Luciferin Signal (Photons/s) In Vivo-Cd1 (Spleen) | tolerability (C57BL/6 mice) | adverse clinical observations (C57BL/6 mice) | reduction in white blood cells and lymphocytes in the blood (C57BL/6 mice) | expression in liver and spleen (ex-vivo luminescence) (liver, tumor, and spleen) | expression in solid tumor tissue (ex-vivo luminescence) (liver, tumor, and spleen)
1 | CCCCCCCCC(CCCCCCCC)OC(=O)CCCCCCCN(CCO)CCCCCCCOC(=O)CCCCCCCC=C(C)C [Compound 54, 7-((8-(heptadecan-9-yloxy)-8-oxooctyl)(2-hydroxyethyl)amino)heptyl 10-methylundec-9-enoate] | 1.05E+06 RLU | 7.25E+05 RLU | 5.12E+06 RLU | 8.29E+09 Photons/s | Statistically significant difference in transfection efficiency | – | – | – | – | – | – | – | – | – | –
2 | CCCCCCCCC(CCCCCCCCF)OC(=O)CCCCCCCN(CCO)CCCCCCCC(=O)OCCCCCCCC=C(C)C (stereo not shown) [Compound 58, 1-fluoroheptadecan-9-yl 8-((2-hydroxyethyl)(8-((9-methyldec-8-en-1-yl)oxy)-8-oxooctyl)amino)octanoate] | 2.18E+06 RLU | 4.03E+05 RLU | 4.80E+06 RLU | 9.65E+09 Photons/s | Statistically significant difference in transfection efficiency | – | – | – | – | – | – | – | – | – | –
3 | CCCCCCCCC(CCCCCCCCF)OC(=O)CCCCCCCN(CCCCO)CCCCCCC(C)C(=O)OCCCCCCCCC(C)C (stereo not shown) [Compound 67, 9-methyldecyl 8-((8-((1-fluoroheptadecan-9-yl)oxy)-8-oxooctyl)(4-hydroxybutyl)amino)-2-methyloctanoate] | 4.35E+06 RLU | 2.75E+06 RLU | 3.24E+07 RLU | 5.31E+09 Photons/s | Statistically significant difference in transfection efficiency | – | – | – | – | – | – | – | – | – | –
4 | CCCCCCCCC(CCCCCCCC)OC(=O)CCCCCCCN(CCCCO)CCCCCCC(C)C(=O)OCCCCCCCCC(C)C (stereo not shown) [Compound 68, 9-methyldecyl 8-((8-(heptadecan-9-yloxy)-8-oxooctyl)(4-hydroxybutyl)amino)-2-methyloctanoate] | 2.89E+06 RLU | 2.83E+06 RLU | 1.60E+07 RLU | 1.06E+10 Photons/s | Statistically significant difference in transfection efficiency | – | – | – | – | – | – | – | – | – | –
5 | CCCCCCCC/C=C\CCCCCCC1CN(CCOC(=O)CCN(C)C)CC(CCCCCC(=O)OC(CCCCCCCC)CCCCCCC(C)C)O1 (stereo not shown) [Compound 99, 2-methylheptadecan-9-yl (Z)-6-(4-(2-((3-(dimethylamino)propanoyl)oxy)ethyl)-6-(hexadec-7-en-1-yl)morpholin-2-yl)hexanoate] | – | – | – | – | – | 1.00E+05 RLU | 5.27E+05 RLU | 7.66E+04 RLU | 1.81E+09 Photons/s | 2.78E+07 Photons/s | improved tolerability | less adverse clinical observations | less of a reduction in white blood cells and lymphocytes | significantly less expression | nearly equivalent expression
6 | CCCCCCCCC(CCCCCCCC)OC(=O)CCCCCC1CN(CCOC(=O)CCN(C)C)CC(CCCCCC(=O)OC(CCCCCCCC)CCCCCCCC)O1 (stereo not shown) [Compound 100, di(heptadecan-9-yl) 6,6′-(4-(2-((3-(dimethylamino)propanoyl)oxy)ethyl)morpholine-2,6-diyl)dihexanoate] | – | – | – | – | – | 1.43E+04 RLU | 6.29E+04 RLU | 3.18E+04 RLU | 6.44E+09 Photons/s | 2.92E+07 Photons/s | – | – | – | – | –
7 | CCCCCCCCCOC(=O)CCCCCC1CN(CCOC(=O)CCN(C)C)CC(CCCCCC(=O)OC(CCCCCCCC)CCCCCCCC)O1 (stereo not shown) [Compound 101, heptadecan-9-yl 6-(4-(2-((3-(dimethylamino)propanoyl)oxy)ethyl)-6-(6-(nonyloxy)-6-oxohexyl)morpholin-2-yl)hexanoate] | – | – | – | – | – | 9.36E+04 RLU | 6.73E+04 RLU | 6.90E+05 RLU | 6.70E+08 Photons/s | 1.57E+08 Photons/s | improved tolerability | less adverse clinical observations | less of a reduction in white blood cells and lymphocytes | – | –
